Measurements reported in ChEMBL document CHEMBL4118204, “Antidiabetic potential of phytochemicals isolated from the stem bark of Myristica fatua Houtt. var. magnifica (Bedd.) Sinclair” (Bioorg Med Chem, 2018).

Experiments:
Pancreatic alpha-amylase = target: T1, Pancreatic alpha-amylase (Sus scrofa, UniProt P00690); experiment: Inhibition of porcine pancreatic alpha-amylase using starch as substrate after 30 mins by iodine reagent based assay
T1 sequence (P00690 whole entry): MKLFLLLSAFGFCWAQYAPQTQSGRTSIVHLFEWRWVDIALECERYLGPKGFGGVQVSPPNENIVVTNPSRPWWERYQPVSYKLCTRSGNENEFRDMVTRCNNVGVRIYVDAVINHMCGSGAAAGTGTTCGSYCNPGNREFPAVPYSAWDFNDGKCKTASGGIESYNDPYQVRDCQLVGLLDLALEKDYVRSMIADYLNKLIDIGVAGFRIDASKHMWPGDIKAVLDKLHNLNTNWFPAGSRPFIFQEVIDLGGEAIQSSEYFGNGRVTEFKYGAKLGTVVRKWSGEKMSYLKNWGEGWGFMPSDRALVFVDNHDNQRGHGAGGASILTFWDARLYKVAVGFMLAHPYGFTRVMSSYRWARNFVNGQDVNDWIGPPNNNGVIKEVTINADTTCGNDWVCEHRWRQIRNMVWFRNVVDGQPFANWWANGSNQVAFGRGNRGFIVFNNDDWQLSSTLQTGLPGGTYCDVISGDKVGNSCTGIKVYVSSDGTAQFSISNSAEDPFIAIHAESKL

[1] = Inhibition of rat intestinal alpha-glucosidase using p-nitrophenyl alpha-D-glucopyranoside as substrate pretreated for 10 mins followed by substrate addition measured after 5 mins
Albumin = Albumin (Bos taurus, UniProt P02769); experiment: Antiglycation activity in bovine serum albumin assessed as inhibition of advanced glycated end product formation after 24 hrs in presence of alpha-D-glucose by fluorescence assay
Sequence of Albumin (P02769 whole entry): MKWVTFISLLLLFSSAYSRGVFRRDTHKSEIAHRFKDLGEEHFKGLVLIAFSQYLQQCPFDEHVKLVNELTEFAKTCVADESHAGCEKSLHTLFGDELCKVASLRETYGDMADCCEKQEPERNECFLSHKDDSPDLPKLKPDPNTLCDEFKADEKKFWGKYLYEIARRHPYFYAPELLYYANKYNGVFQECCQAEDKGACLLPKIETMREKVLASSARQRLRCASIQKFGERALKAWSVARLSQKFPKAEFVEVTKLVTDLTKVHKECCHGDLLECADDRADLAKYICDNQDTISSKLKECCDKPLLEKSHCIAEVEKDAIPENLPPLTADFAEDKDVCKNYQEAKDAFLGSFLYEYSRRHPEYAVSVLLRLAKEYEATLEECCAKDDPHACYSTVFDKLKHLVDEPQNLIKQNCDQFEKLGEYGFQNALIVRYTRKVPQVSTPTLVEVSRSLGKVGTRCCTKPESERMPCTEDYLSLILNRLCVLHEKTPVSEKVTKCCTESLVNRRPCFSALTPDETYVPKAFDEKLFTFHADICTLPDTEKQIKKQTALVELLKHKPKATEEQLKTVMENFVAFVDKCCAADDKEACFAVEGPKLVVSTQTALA

L6 [2] = experiment: Antidiabetic activity in rat L6 cells assessed as effect on 2-NBDG uptake at 10 uM pretreated for 24 hrs followed by 2-NBDG addition after 30 mins by FACS (reference value: 20%); format: functional
L6 [3] = experiment: Antidiabetic activity in rat L6 cells assessed as effect on 2-NBDG uptake at 25 uM pretreated for 24 hrs followed by 2-NBDG addition after 30 mins by FACS (reference value: 20%); format: functional
L6 [4] = experiment: Antidiabetic activity in rat L6 cells assessed as effect on 2-NBDG uptake at 50 uM pretreated for 24 hrs followed by 2-NBDG addition after 30 mins by FACS (reference value: 20%); format: functional
L6 [5] = experiment: Antidiabetic activity in rat L6 cells assessed as increase in 2-NBDG uptake pretreated for 24 hrs followed by 2-NBDG addition after 30 mins by FACS; format: functional, cell-based
L6 [6] = experiment: Cytotoxicity against rat L6 cells up to 50 uM after 24 hrs by MTT assay; format: cell-based; settings: l6, 24 h
L6 [7] = experiment: Antidiabetic activity in rat L6 cells assessed as effect on 2-NBDG uptake at 100 uM pretreated for 24 hrs followed by 2-NBDG addition after 30 mins by FACS (reference value: 20%); format: functional

Compound	IC50 (Pancreatic alpha-amylase) [µM]	IC50 [1] [µM]	IC50 (Albumin) [µM]	Activity (L6 [2]) [%]	Activity (L6 [3]) [%]	Activity (L6 [4]) [%]	Activity (L6 [5])	Activity (L6 [6])	Activity (L6 [7]) [%]
C[C@H]1O[C@H](O[C@H]2[C@H](O)[C@@H](O)[C@@H](O[C@H]3[C@H](O)[C@@H](O)C(O)O[C@@H]3CO)O[C@@H]2CO)[C@H](O)[C@@H](O)[C@@H]1N[C@H]1C=C(CO)[C@@H](O)[C@H](O)[C@H]1O (some centres not stated) [ACARBOSE]	–	66.6	–	–	–	–	–	–	–
CCCCCCCCCCCCC(=O)c1cccc(C(=O)O)c1	36.6	372	411	17	22.5	31.5	Dose-dependent effect	Non-Toxic	–
CN(C)C(=N)NC(=N)N [METFORMIN]	–	–	–	–	–	–	–	–	36.6
CCCCCCCCCCCCCC(=O)c1c(O)cccc1OC	39	257	192	21.2	28	34.7	Dose-dependent effect	Non-Toxic	–
CCCCCCCCCCCCCC(=O)c1c(O)cccc1O	74.1	172	121	32.9	34.1	36.3	Dose-dependent effect	Non-Toxic	–

More lines, main results first:

IC50 (Pancreatic alpha-amylase) [µM]	IC50 [1] [µM]	IC50 (Albumin) [µM]	Compound	Activity (L6 [2]) [%]	Activity (L6 [3]) [%]	Activity (L6 [4]) [%]	Activity (L6 [5])	Activity (L6 [6])	Activity (L6 [7]) [%]
12.9	63.7	40.3	O=C(CCCCCCCCc1ccc(O)cc1)c1c(O)cccc1O [MALABARICONE B]	37.5	45.8	52.7	Dose-dependent effect	–	–
10.6	43.6	15	O=C(CCCCCCCCc1ccc(O)c(O)c1)c1c(O)cccc1O [MALABARICONE C]	17	18.3	23.9	Dose-dependent effect	Non-Toxic	–
19.1	91.4	19.3	O=C(CCCCCCCCc1ccccc1)c1c(O)cccc1O [MALABARICONE A]	32.9	33.4	36.7	Dose-dependent effect	Non-Toxic	–
32.3	94.5	104	COc1cccc(O)c1C(=O)CCCCCCCCc1ccc(O)cc1	18.3	34.1	34.6	Dose-dependent effect	Non-Toxic	–
